A short description of the data set: Gravimetric vapour sorption (GVS), water vapour adsorption. The settings on record: for water vapour adsorption (comparison): GVS, compared with samples B or C. The class given is physicochemical. The text has this:
GVS is a method traditionally used to detect quantitative weight changes of samples as a function of the relative humidity (RH). Samples, which can comprise solid-state samples such as powders and tablets, but also liquids, are exposed to a defined humidity profile. The corresponding weight change is continuously recorded via an ultra-microbalance. Defined humidity levels are established by mixing defined ratios of a dry carrier gas, usually nitrogen, and a wet stream, typically a water vapour saturated carrier gas such as nitrogen. The RH level is then controlled by the ratio of the dry:wet stream. To maintain isothermal conditions, the GVS apparatus which comprises a microbalance and humidification unit is set up in an incubator system held at a defined temperature. The primary information obtained by a typical commercial GVS system is: • Kinetics of water uptake: • The kinetic of the water uptake is a mass vs. time plot at constant RH level. The equilibrium between sample and humidity can be determined from this information. • Sorption isotherms: • The equilibrium weight changes at each humidity are related to the dry mass of the sample (i.e. the equilibrium mass at 0% RH). The equilibrium weight changes as a function of the RH level are the corresponding sorption isotherms of the sample. Typical sorption isotherms comprise adsorption, i.e. increasing RH levels, and desorption, i.e. decreasing RH levels, cycles. Typically, RH ranges from 0-95% RH are covered. For this purpose, water vapour sorption experiments can be carried out as follows: • Adsorption segment range 0-98% RH, preferably 0-50% RH. • Adsorption segment RH-step size of 10% RH or smaller, preferably 5% RH or 2.5% RH. • Desorption segment range 98-0% RH, preferably 50-0% RH. • Desorption segment RH-step size of 10% RH or smaller, preferably 5% RH or 2.5% RH. • Equilibration times at each humidity of 15 minutes and longer, preferably 30 minutes and longer, most preferably 60 minutes and longer. The important factor here is that all water vapour sorption uptakes used for further evaluation do reach equilibrium, i.e. that the weight change over time within each RH-step kinetic should be very small at the end of each RH segment. For these purposes, typical equilibration times are given. • Isothermal temperature in the range 5-50° C., preferably 25-37° C., most preferably about 25° C. • Sample masses of 10-50 mg, preferably 15-50 mg. […] Compression/compaction of the sample should be avoided in order to ensure that there are enough voids in any powder sample to allow the water vapour to penetrate. From these experiments, the primary information obtained is the sorption kinetic (mass vs. time at constant humidity) as well as the conventional sorption isotherm (weight change related to dry value vs. RH level), as previously described. The four samples A-D of irbesartan were also subjected to GVS to assess the extent of any water adsorption. […] The water adsorption results obtained from the GVS analysis are illustrated in Table 3.

On to `CCCCC1=NC2(CCCC2)C(=O)N1Cc1ccc(-c2ccccc2-c2nnn[nH]2)cc1` [Sample A, irbesartan], for which the “water vapour adsorption (comparison)” value is on record as “greater water vapour adsorption”. The “Water Adsorption” value (5 % RH) is 0.06 wt %. Moreover, the “Water Adsorption” value (10 % RH) is reported as 0.09 wt %. In addition, under “15 % RH”, the “Water Adsorption” value is given as 0.12 wt %. Under “20 % RH”, the “Water Adsorption” value worked out at 0.14 wt %. In addition, the “Water Adsorption” value (25 % RH) is given as 0.17 wt %. The “Water Adsorption” value (30 % RH) came out at 0.20 wt %. Where the note is “35 % RH”, the “Water Adsorption” value was found to be 0.22 wt %. Besides, the “Water Adsorption” value (40 % RH) is reported as 0.24 wt %. The “Water Adsorption” value (50 % RH) is listed as 0.29 wt %. Moreover, where the note is “60 % RH”, the “Water Adsorption” value is reported as 0.34 wt %. In addition, the “Water Adsorption” value (70 % RH) was found to be 0.39 wt %. For the same molecule, the “Water Adsorption” value (80 % RH) was 0.44 wt %. Also, the “Water Adsorption” value (90 % RH) stood at 0.52 wt %. Further, the “Rel. adsorbed amount n” value (RH 0.33 %) is reported as 0.0258 wt %. In addition, under “RH 4.98 %”, the “Abs. adsorbed amount n” value came out at 0.0110 mg and the “Rel. adsorbed amount n” value is 0.0592 wt %. Moreover, for the setting “RH 10.01 %”, the “Abs. adsorbed amount n” value came to 0.0166 mg and the “Rel. adsorbed amount n” value was 0.0894 wt %. Also, for the setting “RH 15.00 %”, the “Abs. adsorbed amount n” value is 0.0219 mg and the “Rel. adsorbed amount n” value is given as 0.1179 wt %. Under “RH 19.99 %”, the “Abs. adsorbed amount n” value was 0.0265 mg and the “Rel. adsorbed amount n” value amounted to 0.1427 wt %. Also, for the setting “RH 25.02 %”, the “Abs. adsorbed amount n” value amounted to 0.0320 mg and the “Rel. adsorbed amount n” value is given as 0.1723 wt %. Besides, for the setting “RH 30.00 %”, the “Abs. adsorbed amount n” value was 0.0369 mg and the “Rel. adsorbed amount n” value is 0.1987 wt %. In addition, the “Rel. adsorbed amount n” value (RH 34.98 %) amounted to 0.2207 wt %. Moreover, under “RH 40.02 %”, the “Rel. adsorbed amount n” value was found to be 0.2439 wt %. The “Rel. adsorbed amount n” value (RH 49.98 %) stood at 0.2902 wt %. For the setting “RH 60.00 %”, the “Rel. adsorbed amount n” value was 0.3392 wt %. The “Rel. adsorbed amount n” value (RH 70.02 %) was 0.3855 wt %. Also, the “Rel. adsorbed amount n” value (RH 79.99 %) was 0.4372 wt %. The “Rel. adsorbed amount n” value (RH 90.01 %) is on record as 0.5152 wt %. For the same molecule, the “Rel. adsorbed amount n” value (RH 93.03 %) was determined as 0.5233 wt %.
As to `CCCCC1=NC2(CCCC2)C(=O)N1Cc1ccc(-c2ccccc2-c2nnn[nH]2)cc1` [Sample B, irbesartan], the “Water Adsorption” value was 0.03 wt % (5 % RH); 0.04 wt % (10 % RH); 0.06 wt % (15 % RH); 0.07 wt % (20 % RH); 0.09 wt % (25 % RH); 0.10 wt % (30 % RH). The “Water Adsorption” value is reported as 0.11 wt % (35 % RH); 0.13 wt % (40 % RH); 0.15 wt % (50 % RH); 0.18 wt % (60 % RH); 0.20 wt % (70 % RH); 0.23 wt % (80 % RH). Also, for the setting “90 % RH”, the “Water Adsorption” value was 0.28 wt %.
`CCCCC1=NC2(CCCC2)C(=O)N1Cc1ccc(-c2ccccc2-c2nnn[nH]2)cc1` [Sample C, irbesartan]: the “Water Adsorption” value was 0.04 wt % (5 % RH); 0.07 wt % (10 % RH); 0.08 wt % (15 % RH); 0.09 wt % (20 % RH); 0.11 wt % (25 % RH); 0.13 wt % (30 % RH). Also, the “Water Adsorption” value is, setting by setting: (35 % RH) 0.14 wt %; (40 % RH) 0.15 wt %; (50 % RH) 0.18 wt %; (60 % RH) 0.21 wt %; (70 % RH) 0.23 wt %; (80 % RH) 0.27 wt %. Besides, under “90 % RH”, the “Water Adsorption” value amounted to 0.31 wt %.
In the case of `CCCCC1=NC2(CCCC2)C(=O)N1Cc1ccc(-c2ccccc2-c2nnn[nH]2)cc1` [Sample D, irbesartan], the “water vapour adsorption (comparison)” value is “greater water vapour adsorption”. In addition, the “Water Adsorption” value (5 % RH) stood at 0.07 wt %. The “Water Adsorption” value (10 % RH) is 0.10 wt %. Also, under “15 % RH”, the “Water Adsorption” value worked out at 0.13 wt %. Further, where the note is “20 % RH”, the “Water Adsorption” value is recorded as 0.16 wt %. Further, the “Water Adsorption” value (25 % RH) amounted to 0.19 wt %. For the setting “35 % RH”, the “Water Adsorption” value stood at 0.23 wt %. The “Water Adsorption” value (40 % RH) is given as 0.26 wt %. Where the note is “50 % RH”, the “Water Adsorption” value came to 0.33 wt %. Further, the “Water Adsorption” value (60 % RH) stood at 0.39 wt %. In addition, the “Water Adsorption” value (70 % RH) was determined as 0.46 wt %. Moreover, for the setting “80 % RH”, the “Water Adsorption” value turned out to be 0.52 wt %. For the same molecule, the “Water Adsorption” value (90 % RH) is 0.63 wt %.

The values are drawn from patent US20090312380A1, “NOVEL COMPOSITIONS AND METHODS” (priority 2006, published 2009).
